Measured values published in publication PMC5572761 (Journal of medicinal chemistry, 2017).
Where a SMILES comes first, the peptide text is derived from it. Bridges are numbered along the chain shown (N, C = ends).

Assays:
[1] = target: rat α3β4 nAChR (Rattus norvegicus, UniProt P04757+P12392); type: cell-based
[2] = target: rat α6/α3β4 nAChR (Rattus norvegicus, UniProt P04757+P12392+P43143); type: cell-based
Chain of rat α6/α3β4 nAChR (P04757 whole entry, looked up): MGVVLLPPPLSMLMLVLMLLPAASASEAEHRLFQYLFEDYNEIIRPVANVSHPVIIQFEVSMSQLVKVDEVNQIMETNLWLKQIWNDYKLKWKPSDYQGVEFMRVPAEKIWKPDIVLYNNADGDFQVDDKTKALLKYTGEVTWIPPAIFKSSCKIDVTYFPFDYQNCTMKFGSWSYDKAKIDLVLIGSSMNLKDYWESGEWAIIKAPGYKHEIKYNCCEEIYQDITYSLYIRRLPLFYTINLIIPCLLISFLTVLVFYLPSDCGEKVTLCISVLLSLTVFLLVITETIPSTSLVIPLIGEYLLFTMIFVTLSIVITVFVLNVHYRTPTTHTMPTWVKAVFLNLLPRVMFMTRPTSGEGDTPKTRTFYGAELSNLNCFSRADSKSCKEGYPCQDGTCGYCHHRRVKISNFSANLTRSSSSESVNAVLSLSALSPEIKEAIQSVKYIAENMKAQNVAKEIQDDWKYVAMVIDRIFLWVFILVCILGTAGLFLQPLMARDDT
Chain of rat α6/α3β4 nAChR (P12392 whole entry, looked up): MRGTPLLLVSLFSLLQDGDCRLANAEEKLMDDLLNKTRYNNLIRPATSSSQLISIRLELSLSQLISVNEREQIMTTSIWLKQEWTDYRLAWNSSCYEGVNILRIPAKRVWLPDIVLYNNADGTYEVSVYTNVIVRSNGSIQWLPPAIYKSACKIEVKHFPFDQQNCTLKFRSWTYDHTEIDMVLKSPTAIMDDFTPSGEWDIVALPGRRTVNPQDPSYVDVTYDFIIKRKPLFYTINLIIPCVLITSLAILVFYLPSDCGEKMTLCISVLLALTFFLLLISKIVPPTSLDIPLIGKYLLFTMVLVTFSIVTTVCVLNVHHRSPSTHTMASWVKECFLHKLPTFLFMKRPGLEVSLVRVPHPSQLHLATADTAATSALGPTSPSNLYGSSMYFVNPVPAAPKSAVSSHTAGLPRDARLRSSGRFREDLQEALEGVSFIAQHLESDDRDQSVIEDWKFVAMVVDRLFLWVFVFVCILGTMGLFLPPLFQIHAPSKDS
Chain of rat α6/α3β4 nAChR (P43143 whole entry, looked up): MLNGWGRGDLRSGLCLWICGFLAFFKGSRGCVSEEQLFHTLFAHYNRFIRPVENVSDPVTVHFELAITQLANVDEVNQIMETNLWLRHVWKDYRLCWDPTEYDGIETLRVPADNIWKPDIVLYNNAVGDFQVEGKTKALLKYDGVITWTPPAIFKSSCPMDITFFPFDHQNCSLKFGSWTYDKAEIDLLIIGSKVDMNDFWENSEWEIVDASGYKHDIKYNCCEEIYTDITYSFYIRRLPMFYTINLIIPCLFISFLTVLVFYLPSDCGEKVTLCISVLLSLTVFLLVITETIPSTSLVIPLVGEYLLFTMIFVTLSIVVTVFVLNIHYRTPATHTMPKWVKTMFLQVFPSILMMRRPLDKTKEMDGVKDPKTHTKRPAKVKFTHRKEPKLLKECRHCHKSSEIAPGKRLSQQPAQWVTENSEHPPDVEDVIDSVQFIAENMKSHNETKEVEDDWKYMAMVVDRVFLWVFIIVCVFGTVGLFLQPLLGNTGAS

Chain of rat α3β4 nAChR (P04757 26-499 limits assumed): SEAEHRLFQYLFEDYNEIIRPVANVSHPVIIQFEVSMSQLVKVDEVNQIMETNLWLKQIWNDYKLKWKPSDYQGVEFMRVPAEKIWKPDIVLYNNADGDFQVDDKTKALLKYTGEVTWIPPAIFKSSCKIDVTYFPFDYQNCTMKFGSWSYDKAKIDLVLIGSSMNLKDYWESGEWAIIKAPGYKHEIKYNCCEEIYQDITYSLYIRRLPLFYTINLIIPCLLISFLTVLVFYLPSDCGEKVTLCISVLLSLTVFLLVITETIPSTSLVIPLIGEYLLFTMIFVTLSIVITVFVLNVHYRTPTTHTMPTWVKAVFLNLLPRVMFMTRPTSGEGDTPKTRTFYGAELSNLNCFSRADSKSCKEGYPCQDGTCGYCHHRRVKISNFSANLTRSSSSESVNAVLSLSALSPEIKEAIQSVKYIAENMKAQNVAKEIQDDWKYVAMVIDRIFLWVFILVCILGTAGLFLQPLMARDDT
Chain of rat α3β4 nAChR (P12392 21-495 limits assumed): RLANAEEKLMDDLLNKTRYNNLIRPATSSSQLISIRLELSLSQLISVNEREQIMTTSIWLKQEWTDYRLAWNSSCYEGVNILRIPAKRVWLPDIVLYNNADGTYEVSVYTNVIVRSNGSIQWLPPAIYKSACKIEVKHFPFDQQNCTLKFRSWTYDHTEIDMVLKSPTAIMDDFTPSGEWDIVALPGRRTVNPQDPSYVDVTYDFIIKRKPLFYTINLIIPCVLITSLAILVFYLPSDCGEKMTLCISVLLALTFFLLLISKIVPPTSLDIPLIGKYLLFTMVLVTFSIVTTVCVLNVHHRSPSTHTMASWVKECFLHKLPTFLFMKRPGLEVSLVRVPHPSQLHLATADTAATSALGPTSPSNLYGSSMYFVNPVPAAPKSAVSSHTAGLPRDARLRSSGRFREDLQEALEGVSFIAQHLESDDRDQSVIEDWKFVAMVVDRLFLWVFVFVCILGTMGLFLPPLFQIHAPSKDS

**Q.** Which results are given for CSCC[C@@H]1NC(=O)[C@H](C)NC(=O)[C@H](CO)NC(=O)[C@@H]2CSSC[C@H](NC(=O)CN)C(=O)N[C@@H](CSSC[C@@H](C(N)=O)NC(=O)[C@H](C)NC(=O)[C@@H]3CCCN3C(=O)[C@H](CO)NC1=O)C(=O)N[C@@H](CO)C(=O)N[C@@H](Cc1c[nH]cn1)C(=O)N1CCC[C@H]1C(=O)N[C@@H](C(C)C)C(=O)N2 [Peptide 11] (H-GCCSHPVCSAMSPAC-NH2; disulfide 2-8, 3-15)?
**A.** Hill slope n^H α3β4 [1]: 1.05 (0.39–1.70); α3β4 IC50 ratio relative to 1 [1]: 4.4; Hill slope n^H α6/α3β4 [2]: 1.04 (0.77–1.32); α6/α3β4 IC50 ratio relative to 1 [2]: 1.3

**Q.** For CSCC[C@@H]1NC(=O)[C@H](C)NC(=O)[C@H](CO)NC(=O)[C@@H]2CSSC[C@H](NC(=O)CN)C(=O)N[C@@H](CSSC[C@@H](C(N)=O)NC(=O)[C@H](CC(=O)O)NC(=O)[C@@H]3CCCN3C(=O)[C@H](CO)NC1=O)C(=O)N[C@@H](CO)C(=O)N[C@@H](Cc1c[nH]cn1)C(=O)N1CCC[C@H]1C(=O)N[C@@H](C(C)C)C(=O)N2 [Peptide 14] (H-GCCSHPVCSAMSPDC-NH2; disulfide 2-8, 3-15), which “Hill slope n^H α3β4” value [1] is on record?
**A.** The value was 1.33 (0.387–2.26).

**Q.** And the “α3β4 IC50 ratio relative to 1” value [1]?
**A.** The value was 2.7.

**Q.** What about the “Hill slope n^H α6/α3β4” value [2] of the same compound?
**A.** The value was 0.84 (0.69–0.98).

**Q.** What about the “α6/α3β4 IC50 ratio relative to 1” value [2] of the same compound?
**A.** Its value is 1.2.
